From patent publication US8906860B2, “Methods and compositions inhibiting tumor cell proliferation” (The Board of Trustees of the University of Illinois, priority 2011, dated 2014) come the findings set out here.

SMILES strings stand for the structures. Read-outs that look alike come from different tables or passages of the source. Square brackets hold non-standard residues; d marks the D form. Peptide text beside a SMILES is read from it.

Test [1] deals with p53 null sarcoma cells. In words: In vitro peptide treatment of p53 null sarcoma cells (viability, TUNEL). Particulars: 24 hours. The class given is cell-based, mouse.
Test [2] relates to S2 cells. Particulars: 24 hours.
Procedure: TUNEL assay was used to measure apoptosis in S2 cells treated with WT-blocked, mutant-blocked or WT-unblocked (D-Arg)9-p19^ARF 26-44 peptides. (D-Arg)9-p19^ARF 26-44 peptide treatment of cells was performed in 8-well chamber slides for TUNEL staining. On Day 0, 20,000 cells per well were seeded in the 8-well chamber slides. On Day 1, slides were replenished with fresh media containing one of the following concentrations of either WT-blocked, mutant-blocked or WT-unblocked (D-Arg)9-p19^ARF 26-44 peptides: 10, 15, 25, 30, 40 and 70 μM for 24 hours. On Day 2, TUNEL staining was performed following the manufacture's protocol (ApopTag® Fluorescein In Situ Apoptosis Detection Kit from CHEMICON® International, S7110). The percent of apoptosis of S2 cells (±SD) was measured by counting the number of TUNEL-positive cells (green fluorescence) per 1,000 nuclei as visualized by DAPI (blue fluorescence) counterstaining. The experiment was repeated in a second experiment using the same protocol. Statistical analysis and EC50 calculation were performed using GraphPad Prism software.
The test system of test [3] is p53 null thymic lymphoma cells. The experiment in a line: Kidney colonization of intravenously injected p53 null thymic lymphoma cells in SCID mice. The class given is in vivo, mouse. Particulars: 2.5 mg/kg intraperitoneal every other day, 10 injections. How it is done:
(§1) These experiments were performed to determine if modifying the termini conferred any advantages on these peptides when administered to an animal. Both wild type ARF 26-44 (rrrrrrrrrKFVRSRRPRTASCALAFVN) (SEQ ID NO 10) and mutant ARF 37-44 (rrrrrrrrrSCALAFVN) (SEQ ID NO 21) peptides were synthesized by Genemed Synthesis Inc. (San Antonio, Tex.). The N-terminus of each peptide was fused with nine D-Arg(r) residues. Both wild type and mutant peptides were blocked with amidation on C-terminus and acetylation on N-terminus. For sarcoma cells, mice were treated with 5 mg/kg body weight of peptide every other day for 10 times. For lymphoma cells, mice were treated with 2.5 mg/kg body weight of peptide every other day for 10 times.
To test the therapeutic effect of the ARF-peptide on p53 null tumors in vivo, p53 null lymphoma/sarcoma cells were introduced into the circulation of SCID mice through intravenous injection. ICR SCID mice were obtained from Taconic Farms (Germantown, N.Y.). Both p53 null sarcoma and lymphoma cells were stably transduced before injection with lentivirus carrying a gene conferring luciferase expression. Specifically, cells were stably transduced with pFU-L2G luciferase construct obtained from Sanjiv Sam Gambhir (M. D., Ph.D) of Stanford University as optimized by Dr. Huiping Liu (Liu et al., Proc Natl Acad Sci USA, 107: 18115-18120). This construct enabled expression of both the bioluminescence and green fluorescence protein. eGFP positive cells were sorted by Beckman Coulter MoFlo. 3×10^6 cells were suspended in cold PBS and injected through the tail vein of SCID mice. Live animal imaging was performed using an IVIS Spectrum optical imaging machine (Caliper Life Sciences, Alameda, Calif.). […] Mice were randomized into three groups and were treated with PBS, mutant-peptide or the wild type ARF-peptide for 10 injections every other day by intraperitoneal injection. […] The mice were sacrificed and lung sections were analyzed for tumor colonies. […] For the p53 null thymic lymphoma cells, metastatic growth in kidney was observed, consistent with murine thymic lymphoma cells having a tendency to colonize kidney, liver and spleen (Aoudjit et al., 1998, Blood, 91: 623-629).

The subject of test [4] is p53 null thymic lymphoma cell lines L1 and L2. The experiment in a line: In vitro peptide treatment of p53 null thymic lymphoma cells (viability, TUNEL). As to conditions: one day after treatment. The class given is cell-based, mouse.
The test system of test [5] is p53 null sarcoma cells. The experiment in a line: Lung colonization of intravenously injected p53 null sarcoma cells in SCID mice. The class given is in vivo, mouse. As to conditions: 5 mg/kg intraperitoneal every other day, 10 injections. How it is done:
as §1
To test the therapeutic effect of the ARF-peptide on p53 null tumors in vivo, p53 null lymphoma/sarcoma cells were introduced into the circulation of SCID mice through intravenous injection. ICR SCID mice were obtained from Taconic Farms (Germantown, N.Y.). Both p53 null sarcoma and lymphoma cells were stably transduced before injection with lentivirus carrying a gene conferring luciferase expression. Specifically, cells were stably transduced with pFU-L2G luciferase construct obtained from Sanjiv Sam Gambhir (M. D., Ph.D) of Stanford University as optimized by Dr. Huiping Liu (Liu et al., Proc Natl Acad Sci USA, 107: 18115-18120). This construct enabled expression of both the bioluminescence and green fluorescence protein. eGFP positive cells were sorted by Beckman Coulter MoFlo. 3×10^6 cells were suspended in cold PBS and injected through the tail vein of SCID mice. Live animal imaging was performed using an IVIS Spectrum optical imaging machine (Caliper Life Sciences, Alameda, Calif.). […] Mice were randomized into three groups and were treated with PBS, mutant-peptide or the wild type ARF-peptide for 10 injections every other day by intraperitoneal injection. […] The mice were sacrificed and lung sections were analyzed for tumor colonies. […]

For `CC(=O)N[C@H](CCCNC(=N)N)C(=O)N[C@H](CCCNC(=N)N)C(=O)N[C@H](CCCNC(=N)N)C(=O)N[C@H](CCCNC(=N)N)C(=O)N[C@H](CCCNC(=N)N)C(=O)N[C@H](CCCNC(=N)N)C(=O)N[C@H](CCCNC(=N)N)C(=O)N[C@H](CCCNC(=N)N)C(=O)N[C@H](CCCNC(=N)N)C(=O)N[C@@H](CCCCN)C(=O)N[C@@H](Cc1ccccc1)C(=O)N[C@H](C(=O)N[C@@H](CCCNC(=N)N)C(=O)N[C@@H](CO)C(=O)N[C@@H](CCCNC(=N)N)C(=O)N[C@@H](CCCNC(=N)N)C(=O)N1CCC[C@H]1C(=O)N[C@@H](CCCNC(=N)N)C(=O)N[C@H](C(=O)N[C@@H](C)C(=O)N[C@@H](CO)C(=O)N[C@@H](CS)C(=O)N[C@@H](C)C(=O)N[C@@H](CC(C)C)C(=O)N[C@@H](C)C(=O)N[C@@H](Cc1ccccc1)C(=O)N[C@H](C(=O)N[C@@H](CC(N)=O)C(N)=O)C(C)C)[C@@H](C)O)C(C)C` [WT Blocked, rrrrrrrrrKFVRSRRPRTASCALAFVN] (Ac-[dR][dR][dR][dR][dR][dR][dR][dR][dR]KFVRSRRPRTASCALAFVN-NH2), the “Viability and apoptosis (TUNEL) after peptide treatment” value in test [1] is “A similar effect was observed in p53 null sarcoma cells”. In addition, the “% of TUNEL Positive S2 Cells, Mean” value in test [2] (Experiment 1, 10 μM/Well) amounted to 0.46%; in test [2] (Experiment 1, 25 μM/Well), 20.27%; in test [2] (Experiment 1, 30 μM/Well) it was 57.78%; in test [2] (Experiment 1, 40 μM/Well), 98.48%; in test [2] (Experiment 2, 10 μM/Well), 12.91%; in test [2] (Experiment 2, 15 μM/Well), 13.6%. For the same molecule, the “% of TUNEL Positive S2 Cells, Mean” value in test [2] (Experiment 2, 25 μM/Well) stood at 39.48%; in test [2] (Experiment 2, 30 μM/Well), 47.52%; in test [2] (Experiment 2, 40 μM/Well), 70.17%. For the same molecule, the “Apoptosis induction compared between peptides (TUNEL)” value in test [2] (S2 cells, 10-70 μM) was “induced significantly higher apoptosis compared to WT-unblocked and mutant-blocked”. In addition, the “Kidney tumor mass at sacrifice” value in test [3] was “retained their original size and structure, with only a small white mass beginning to build up on the surface of the kidney”. Moreover, the “Luciferase signal from colonized lymphoma cells” value in test [3] (around 20 days after inoculation) is listed as “emitted very little fluorescence”. Also, the “Apoptosis of cells after peptide treatment” value in test [4] is on record as “underwent apoptosis”. Moreover, in test [4], the “Number of viable cells versus mutant-peptide or PBS” value is on record as “much less”. The “Number of lung tumor colonies larger than 100 μm×100 μm” value in test [5] is “A reduced number of tumor colonies”. In addition, the “Tumors on the surface of the lungs” value in test [5] is given as “fewer tumors were observed on the surface of the lungs”. For the same molecule, the “Luciferase signal from mice” value in test [5] (20 days after inoculation) is “significantly reduced”.
